What was measured:
[1] = system: Swiss albino mice and Guinea pigs; assay: Plasma triglyceride and total cholesterol lowering activity in Swiss albino mice and Guinea pigs; type: in vivo; conditions: 3 mg/kg orally for 6 days; species of the table not stated (Swiss albino mice / Guinea pigs)
Description: C) Plasma Triglyceride and Total Cholesterol Lowering Activity in Swiss Albino Mice and Guinea Pigs Male Swiss albino mice (SAM) and male Guinea pigs were obtained from NIN and housed in DRF animal house. All these animals were maintained under 12 hour light and dark cycle at 25±1° C. Animals were given standard laboratory chow (NIN, Hyderabad. India) and water, ad libitum. […] C. Effects of fenofibrate, gemfibrozil and nicotinic acid on plasma lipoprotein levels in normal and hyperlipidemic mice. Atherosclerosis. 1988, 70: 107-114). […] Control mice were treated with vehicle (0.25% Carboxymethylcellulose; dose 10 ml/kg). […] Control animals were treated with vehicle (0.25% Carboxymethylcellulose; dose 5 ml/kg). The blood samples were collected in fed state 1 hour after drug administration on 0 and 6 day of treatment. The blood was collected from the retro-orbital sinus through heparinised capillary in EDTA containing tubes. After centrifugation, plasma sample was separated for triglyceride and total cholesterol (Wieland, O. Methods of Enzymatic analysis. Bergermeyer, H. O., Ed., 1963. 211-214; Trinder, P. Ann. Clin. Biochem. 1969, 6: 24-27). […] Percent reduction in Blood sugar/triglycerides/total cholesterol were calculated according to the formula: [formula] […] LDL and VLDL cholesterol levels were calculated according to the formula: […]

[2] = system: cholesterol fed Syrian Hamsters; conditions: hamster, in vivo, po, 10 mg/kg/day
C57BL/KsJ-db/db mice = assay: Blood sugar and triglyceride lowering in db/db mice (genetic model); type: in vivo
Text: Mutation in colonies of laboratory animals and different sensitivities to dietary regimens have made the development of animal models with non-insulin dependent diabetes and hyperlipidemia associated with obesity and insulin resistance possible. Genetic models such as db/db and ob/ob (Diabetes, (1982) 31(1): 1-6) mice and zucker fa/fa rats have been developed by the various laboratories for understanding the pathophysiology of disease and testing the efficacy of new antidiabetic compounds (Diabetes, (1983) 32: 830-838; Annu. Rep. Sankyo Res. Lab. (1994). 46: 1-57). The homozygous animals, C57 BL/KsJ-db/db mice developed by Jackson Laboratory, U.S., are obese, hyperglycemic, hyperinsulinemic and insulin resistant (J. Clin. Invest., (1990) 85: 962-967), whereas heterozygous are lean and normoglycemic. In db/db model, mouse progressively develops insulinopenia with age, a feature commonly observed in late stages of human type II diabetes when blood sugar levels are insufficiently controlled. The state of pancreas and its course vary according to the models. Since this model resembles that of type II diabetes mellitus, the compounds of the present invention were tested for blood sugar and triglycerides lowering activities. Male C57BL/KsJ-db/db mice of 8 to 14 weeks age, having body weight range of 35 to 60 grams, bred at Dr. Reddy's Research Foundation (DRF) animal house, were used in the experiment. The mice were provided with standard feed (National Institute of Nutrition (NIN), Hyderabad, India) and acidified water, ad libitum. The animals having more than 350 mg/dl blood sugar were used for testing. The number of animals in each group was 4. […] The control group received vehicle (dose 10 ml/kg). On 6th day the blood samples were collected one hour after administration of test compounds/vehicle for assessing the biological activity. The random blood sugar and triglyceride levels were measured by collecting blood (100 μl) through orbital sinus, using heparinised capillary in tubes containing EDTA which was centrifuged to obtain plasma. The plasma glucose and triglyceride levels were measured spectrometrically, by glucose oxidase and glycerol-3-PO4 oxidase/peroxidase enzyme (Dr. Reddy's Lab. Diagnostic Division Kits, Hyderabad, India) methods respectively. The blood sugar and triglycerides lowering activities of the test compound was calculated according to the formula. Formulae for Calculation: 1. Percent reduction in Blood sugar/triglycerides/total cholesterol were calculated according to the formula: [formula] OC=Zero day control group value OT=Zero day treated group value TC=Test day control group value TT=Test day treated group value 2. LDL and VLDL cholesterol levels were calculated according to the formula: […]

[3] = system: hypercholesterolemic Sprague Dawley rats; conditions: rat, in vivo, po, 1 mg/kg
[4] = 10 mg/kg oral gavage daily for 6 days
[5] = 3 mg/kg oral gavage daily for 6 days

CCOC(Cc1ccc(OCC2CN(Cc3ccccc3)c3ccccc3O2)cc1)C(=O)[O-].[Na+] (racemic) [Example 63, (±) 3-[4-(4-Benzyl-3,4-dihydro-1,4-benzoxazin-2-yl)methoxyphenyl]-2-ethoxy propanoic acid, sodium salt]
Triglyceride Lowering (%) [1]: 57%

CCOC(Cc1ccc(OCCN2CCSc3ccccc32)cc1)C(=O)[O-].[Na+] (racemic) [Example 30, (±) 3-[4-[2(2,3-Dihydro-1,4-benzothiazin-4-yl)ethoxy]phenyl]-2-ethoxypropanoic acid, sodium salt]
Body weight Reduction (%) [2]: 18%

CCOC(Cc1ccc2cc(OCCN3CCSc4ccccc43)ccc2c1)C(=O)[O-].[Na+] (racemic) [Example 44]
Reduction in Blood Glucose Level (%) (C57BL/KsJ-db/db mice; [4]): 47%
Triglyceride Lowering (%) (C57BL/KsJ-db/db mice; [4]): 74%
HDL (%) ↑ increase [3]: 46%
LDL (%) ↓ reduction [3]: 44%
Total Cholesterol (%) ↓ reduction [3]: 42%
Triglyceride (%) ↓ reduction [3]: 50%
VLDL (%) ↓ reduction [3]: 53%

CCCCOC(Cc1ccc(OCCN2CCOc3ccccc32)cc1)C(=O)[O-].[Na+] (racemic) [Example 50, (±) 3-[4-[2-(2,3-Dihydro-1,4-benzoxazin-4-yl)ethoxy]phenyl]-2-butoxypropanoic acid, sodium salt]
Reduction in Blood Glucose Level (%) (C57BL/KsJ-db/db mice; [5]): 45%
Triglyceride Lowering (%) (C57BL/KsJ-db/db mice; [5]): 23%

— patent US7348426B1, “Substituted bicyclic heterocycles, process for their preparation and their use as antiobesity and hypocholesterolemic agents” (Dr. Reddy's Laboraties Limited, priority 1999, dated 2008)
